{"source": "patent US12030867B2", "about": "“Hsp90β selective inhibitors” (University of Notre Dame du Lac, priority 2018, dated 2024)", "key": {"[1]": {"tested_on": "Hsp90 client proteins in HCT-116 cells", "assay": "western blot analysis following treatment of HCT-116 cells", "assay_type": "cell-based", "experimental": "(§1) 0.5 μM GDA was included as positive control and vehicle (D=DMSO) as negative control. […] Hsp90α siRNA was included as positive control and vehicle (lipofectamine) as negative control."}, "[2]": {"tested_on": "HTB-9 bladder cancer cells", "assay": "tissue or blood"}, "[3]": {"tested_on": "HT1376 bladder cancer cells", "assay": "cells", "settings": "Homo sapiens, HT-1376"}, "[4]": {"tested_on": "HTB-5 bladder cancer cells", "assay": "tissue or blood"}, "[5]": {"tested_on": "screened cancer cell lines", "assay": "inhibitory activity against a variety of cancer cell lines", "assay_type": "cell-based"}, "[6]": {"tested_on": "hERG channel", "assay": "western blot analysis of hERG channel trafficking in hERG-HEK293 cells", "assay_type": "cell-based", "settings": "HEK293 cells expressing the hERG channel", "experimental": "as §1"}, "[7]": {"tested_on": "HCT-116 colon cancer cells", "assay": "cells", "settings": "Homo sapiens"}, "[8]": {"tested_on": "MOLM-13 leukemia cells", "assay": "cells", "settings": "Homo sapiens"}, "[9]": {"biological_target": "Hsp90β (Homo sapiens (Human), UniProt P08238)", "sequence (P08238 whole entry, canonical isoform)": "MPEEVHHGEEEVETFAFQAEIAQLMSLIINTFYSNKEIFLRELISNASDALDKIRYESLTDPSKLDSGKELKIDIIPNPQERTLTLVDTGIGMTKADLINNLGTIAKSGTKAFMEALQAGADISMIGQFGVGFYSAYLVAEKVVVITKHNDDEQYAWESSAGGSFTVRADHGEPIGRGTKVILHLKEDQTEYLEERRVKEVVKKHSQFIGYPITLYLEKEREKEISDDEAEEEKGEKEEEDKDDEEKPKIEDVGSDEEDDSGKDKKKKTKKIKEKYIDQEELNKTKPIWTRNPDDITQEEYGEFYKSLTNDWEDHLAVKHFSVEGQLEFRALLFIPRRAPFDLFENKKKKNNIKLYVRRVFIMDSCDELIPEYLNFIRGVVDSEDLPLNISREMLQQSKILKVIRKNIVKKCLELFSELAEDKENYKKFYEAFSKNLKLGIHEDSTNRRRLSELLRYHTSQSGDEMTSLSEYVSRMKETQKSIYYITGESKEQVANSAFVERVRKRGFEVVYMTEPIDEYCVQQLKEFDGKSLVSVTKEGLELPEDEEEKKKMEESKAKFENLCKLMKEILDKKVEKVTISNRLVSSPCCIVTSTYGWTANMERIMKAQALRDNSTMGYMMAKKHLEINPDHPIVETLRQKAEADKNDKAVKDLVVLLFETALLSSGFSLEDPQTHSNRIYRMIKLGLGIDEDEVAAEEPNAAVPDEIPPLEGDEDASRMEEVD", "assay": "fluorescence polarization (FP) assay, competitive displacement of FITC labeled Geldanamycin", "assay_type": "binding", "settings": "FP assay", "experimental": "Once prepared, the compounds were evaluated for their binding affinities against the cytosolic isoforms, Hsp90α and Hsp90β by measuring their ability to competitively displace FITC labeled Geldanamycin (GDA) in a fluorescence polarization assay (apparent Kd's listed in Table 1). […] The alkyne (4k) was investigated to determine whether a linear substituent could project into the subpocket and affect selectivity."}, "[10]": {"tested_on": "UM-UC3 bladder cancer cells", "assay": "cells", "settings": "Homo sapiens, UMUC3"}, "[11]": {"tested_on": "K562 leukemia cells", "assay": "cells", "settings": "Homo sapiens"}}, "note": "pIC50: −log10 of the molar value.", "data": [{"smiles": "CCCC1Cc2cc(-n3nc(C)c4c3CC(C)(C)CC4=O)cc(N[C@H]3CC[C@H](O)CC3)c2C(=O)N1", "note": "(some centres unmarked) [Compound 6a, 8-(((1r,4r)-4-hydroxycyclohexyl)amino)-3-propyl-6-(3,6,6-trimethyl-4-oxo-4,5,6,7-tetrahydro-1H-indazol-1-yl)-3,4-dihydroisoquinolin-1(2H)-one]", "values": [{"measurement": "CDK4, CDK6, cIAP1 and CXCR4 levels (Hsp90β-dependent clients)", "setting": "[1]", "result": "induced the degradation"}, {"measurement": "total levels of Akt-1 and Raf-1", "setting": "[1]", "result": "not affected"}, {"measurement": "Hsf-1, Hsp70 and Hsp90 levels", "setting": "[1]; 24 h exposure", "result": "induced the degradation"}, {"measurement": "pIC50", "setting": "[2]", "result": 6.09}, {"measurement": "pIC50", "setting": "[3]", "result": 6.15}, {"measurement": "pIC50", "setting": "[4]", "result": 6.03}, {"measurement": "IC50 values against the screened cancer cell lines (in words)", "setting": "[5]", "result": "submicromolar"}, {"measurement": "hERG channel maturation and trafficking", "setting": "[6]", "result": "not affected"}, {"measurement": "pIC50", "setting": "[7]", "result": 6.58}, {"measurement": "pIC50", "setting": "[8]", "result": 7.40}, {"measurement": "affinity for Hsp90β (in words)", "setting": "[9]", "result": "increased binding affinity"}, {"measurement": "selectivity for Hsp90β over Hsp90α (in words)", "setting": "[9]", "result": "enhanced selectivity"}, {"measurement": "pIC50", "setting": "[10]", "result": 5.98}, {"measurement": "pIC50", "setting": "[11]", "result": 6.30}]}]}
